For one data set, the system named is HC3X. Briefly: Repeated-exposure DILI training compounds, resazurin conversion, HC3X. To be noted: for IC50/Cmax: human; for resazurin conversion (Supplementary Figure 7D): HC3X AAGLY D40, replicates. The procedure:
(§1) To evaluate the ability to predict hepatotoxicity, we adapted the differentiation assays to a 384-well format. […] As a readout, we evaluated cell viability by resazurin conversion and correlated the results to therapeutic doses (Cmax values).
(§2) PSCs were differentiated in a 384-well format. […] As a negative control, 41 wells were left untreated. HepG2 were seeded at 40,000 cells per well. […] Cells were fixed with 4% PFA. […] Drugs were administrated after 8 h of attachment.
For orientation: Alamar Blue is a resazurin reagent that responds to reducing activity.

The next data set concerns HC6X. In words: Repeated-exposure DILI training compounds, resazurin conversion, HC6X. To be noted: for resazurin conversion (Supplementary Figure 7D): replicates; for % resazurin conversion: repeat exposure. The procedure: as §1, §2
In another data set the test system is HepG2. In words: Repeated-exposure DILI training compounds, resazurin conversion, HepG2. The conditions noted are these: for resazurin conversion (Supplementary Figure 7D): replicates; for % resazurin conversion: repeat exposure. The procedure:
as §1, §2

The next data set deals with HLC. Briefly: Repeated-exposure DILI training compounds, resazurin conversion, HLC. To be noted: repeat exposure. The procedure:
as §1, §2

Setting [1] is: HC6X AAGLY D40 Remove dox, 100 uM.

Where “and” joins values, the source holds several entries; their conditions need not be identical. Identical values can stand only once.

With `O=C1CC2(CCCC2)CC(=O)N1CCCCN1CCN(c2ncccn2)CC1` [Buspirone], the IC50/Cmax with HC3X is listed as 120200.

Take `CCc1ccc(CCOc2ccc(CC3SC(=O)NC3=O)cc2)nc1` (stereo not shown) [Proglitazone]: the “resazurin conversion (Supplementary Figure 7D)” value with HC6X (HC6X AAGLY D40, 30 uM) was 134.4 and 112 and 79.3 and 107.2 and 76.2 and 91.4; with HC6X (HC6X AAGLY D40, 50 uM), 137 and 83.7 and 59.1 and 75.7 and 149.3 and 136.5; in the data set with HC6X (HC6X AAGLY D40, 100 uM) it was 100.9 and 141.3 and 83.6 and 90.9 and 69.2 and 155.3; in the data set on HC6X (HC6X AAGLY D40, 300 uM), 125.9 and 124.5 and 135.2 and 127.1 and 125.2 and 153.4; in the data set with HC6X (HC6X AAGLY D40, 600 uM), 91.5 and 88.8 and 88.2 and 125.7 and 101 and 136.6; with HC6X (HC6X AAGLY D40, 1200 uM) it was 94.8 and 131 and 95.9 and 103.6 and 97.2 and 136.5. The “resazurin conversion (Supplementary Figure 7D)” value in the data set with HC6X (HC6X AAGLY D40 Remove dox, 30 uM) was 121 and 98.9 and 91.2 and 87.5 and 101; in the data set with HC6X (HC6X AAGLY D40 Remove dox, 50 uM), 105.9 and 84.2 and 118.5 and 71.8 and 81.4 and 110; in the data set with HC6X (setting [1]), 120.6 and 83.7 and 95.6 and 119.3 and 129.6; with HC6X (HC6X AAGLY D40 Remove dox, 300 uM) it was 107.4 and 124.1 and 139.3 and 91.4 and 117.3 and 157.9; in the data set on HC6X (HC6X AAGLY D40 Remove dox, 600 uM), 74.1 and 108.7 and 93.3 and 116.1 and 116 and 105.8; with HC6X (HC6X AAGLY D40 Remove dox, 1200 uM), 119 and 156.2 and 148 and 139.2 and 120.5. Also, the “resazurin conversion (Supplementary Figure 7D)” value in the data set with HC3X (30 uM) is 121 and 98.9 and 91.2 and 87.5 and 101; in the data set with HC3X (50 uM), 105.9 and 84.2 and 118.5 and 71.8 and 81.4 and 110; in the data set with HC3X (100 uM) it was 120.6 and 83.7 and 95.6 and 119.3 and 129.6; with HC3X (300 uM) it was 107.4 and 124.1 and 139.3 and 91.4 and 117.3 and 157.9; in the data set with HC3X (600 uM), 74.1 and 108.7 and 93.3 and 116.1 and 116 and 105.8; in the data set with HC3X (1200 uM), 119 and 156.2 and 148 and 139.2 and 120.5. The “resazurin conversion (Supplementary Figure 7D)” value in the data set on HepG2 (HepG2 AAGLY D30, 30 uM) was 76.5 (2×) and 98.3 and 82.8 and 103.2 and 80.9; with HepG2 (HepG2 AAGLY D30, 50 uM), 86.1 and 109.6 and 86.4 and 100 and 77.1 and 92.9; in the data set on HepG2 (HepG2 AAGLY D30, 100 uM) it was 85.4 and 96.2 and 90.6 and 100.7 and 78.9 and 86.6; with HepG2 (HepG2 AAGLY D30, 300 uM), 105.7 and 117.9 and 106.2 and 102.2; in the data set on HepG2 (HepG2 AAGLY D30, 600 uM), 91.8 and 99.3 and 126.4 and 102.6 and 116.8; with HepG2 (HepG2 AAGLY D30, 1200 uM) it was 95.2 and 102.5 and 118.4 and 129.4 and 110.4 and 135.6. For the same molecule, the “resazurin conversion (Supplementary Figure 7D)” value was 120.4 and 118.8 and 101.6 and 104 and 100.1 with HepG2 (HepG2 CTL D7, 30 uM); 129.5 and 93.8 and 100.8 and 96.7 and 101.2 and 122.3 in the data set with HepG2 (HepG2 CTL D7, 50 uM); 125.4 and 88.5 and 98 and 96 (2×) and 110.7 in the data set with HepG2 (HepG2 CTL D7, 100 uM); 117.2 and 87 and 94.6 (2×) and 95.5 and 111.8 in the data set with HepG2 (HepG2 CTL D7, 300 uM); 86.3 and 70.3 and 76.6 and 75.3 and 70.1 and 87.4 in the data set with HepG2 (HepG2 CTL D7, 600 uM); 57 and 33 and 42.5 and 44.8 and 41.7 and 59 in the data set with HepG2 (HepG2 CTL D7, 1200 uM).

On to `C1CCC(C(CC2CCCCN2)C2CCCCC2)CC1` (stereo not shown) [perhexiline], for which the IC50/Cmax in the data set on HC3X was determined as 0.58.

As for `O=C1CC2(CCCC2)CC(=O)N1CCCCN1CCN(c2ncccn2)CC1` [Buspiron], the “% resazurin conversion” value in the data set with HLC (HLC AAGLY D40, 5 uM) was 67.7% and 92.7% and 64.2% and 84.3% and 47.9% and 66.7%; with HLC (HLC AAGLY D40, 10 uM), 85.8% and 64.9% and 92.1% and 82% and 66.1% and 66.8%; with HLC (HLC AAGLY D40, 30 uM) it was 116.3% and 73.9% and 114.6% and 80.9% and 111.6% and 83.2%; in the data set on HLC (HLC AAGLY D40, 600 uM), 33.4% and 36.6% and 61.5% and 38.3% and 40.4% and 34.1%; in the data set with HLC (HLC AAGLY D40, 1200 uM), 36.8% and 25.4% and 26.6% and 31.3% and 28.1% and 38%; in the data set with HLC (HLC LDM D40, 3 uM) it was 103.9% and 103.1% and 108.1% and 79.4% and 66.2% and 77.5%. The “% resazurin conversion” value in the data set on HLC (HLC LDM D40, 5 uM) was 89.3% and 69.5% and 87.6% and 70.2% and 108.2%; in the data set with HLC (HLC LDM D40, 10 uM), 86.6% and 87.3% and 101% and 83.8% and 104.7% and 105%; in the data set on HLC (HLC LDM D40, 30 uM), 71.9% and 90.1% and 102.1% and 75.5% and 80.5% and 81.4%; with HLC (HLC LDM D40, 50 uM) it was 56.1% and 105.8% and 92.3% and 104% and 79.6%; in the data set with HLC (HLC LDM D40, 100 uM), 84.7% and 120.8% and 121.2% and 77.9% and 92% and 91.2%; in the data set with HC6X (HC6X AAGLY D40, 3 uM), 109.5% and 96.9% and 120.8% and 98% and 87.5% and 117.9%. Moreover, the “% resazurin conversion” value with HC6X (HC6X AAGLY D40, 5 uM) is 83.7% and 97.5% and 104.1% and 109.8% and 83.3% and 99.7%; in the data set on HC6X (HC6X AAGLY D40, 10 uM) it was 85.5% and 135.9% and 111.1% and 117.5% and 91.9% and 102.2%; in the data set on HC6X (HC6X AAGLY D40, 30 uM) it was 114% and 167.8% and 149.8% and 117.8% and 94% and 164.1%; in the data set with HC6X (HC6X AAGLY D40, 50 uM), 112.9% and 116.6% and 111.2% and 167.3% and 107.2% and 107.3%; in the data set with HC6X (HC6X AAGLY D40, 100 uM), 109.2% and 112.4% and 163.5% and 127.2% and 106% and 162.8%; in the data set with HC6X (HC6X AAGLY D40, 300 uM), 140.3% and 103.5% and 121.9% and 115.9% and 101.2% and 155.2%. The “% resazurin conversion” value in the data set with HC6X (HC6X AAGLY D40, 600 uM) is 143.6% and 91% and 112.3% and 121.3% and 99.3% and 149.8%; in the data set on HC6X (HC6X AAGLY D40, 1200 uM) it was 56.9% and 60.8% and 76.3% and 66.9% and 59.2%; in the data set with HC6X (HC6X AAGLY D40 Remove dox, 3 uM), 93.4% and 152.6% and 130.2% and 156.1% and 101.5% and 127.1%; in the data set on HC6X (HC6X AAGLY D40 Remove dox, 10 uM), 169.9% and 114.9% and 169.4% and 120.1% and 97.5% and 96%; with HC6X (setting [1]) it was 158.4% and 106.8% and 179.1% and 111.4% and 123.7% and 132%; with HepG2 (HepG2 AAGLY D30, 3 uM) it was 82.9% and 82.6% and 85.2% and 70.1% and 73.2%. For the same molecule, the “% resazurin conversion” value is 75.8% and 88.2% and 72.9% and 66.2% and 79.4% and 72.2% in the data set with HepG2 (HepG2 AAGLY D30, 5 uM); 70.9% and 76.8% and 83.7% and 64.5% and 73.5% and 76.4% in the data set with HepG2 (HepG2 AAGLY D30, 10 uM); 83.2% and 92.9% and 78.7% and 72.3% and 78.9% and 76.5% in the data set with HepG2 (HepG2 AAGLY D30, 30 uM); 80.3% and 98.3% and 89.9% and 83.3% and 93.4% and 81.9% with HepG2 (HepG2 AAGLY D30, 50 uM); 88.3% and 87.7% and 85.2% and 77.2% and 94.7% and 81.8% in the data set on HepG2 (HepG2 AAGLY D30, 100 uM); 47.4% and 86.8% and 88.6% and 79.7% and 88.3% and 80.1% in the data set with HepG2 (HepG2 AAGLY D30, 300 uM). The “% resazurin conversion” value is 76.5% and 91.9% and 75.1% and 71.1% and 78% and 76.7% in the data set with HepG2 (HepG2 AAGLY D30, 600 uM); 38% and 34.1% and 34.5% and 34.6% and 35.7% in the data set on HepG2 (HepG2 AAGLY D30, 1200 uM); 92.8% in the data set on HepG2 (HepG2 CTL D7, 3 uM); 96.4% and 97.6% and 106.5% and 96.6% and 98% and 90.2% with HepG2 (HepG2 CTL D7, 5 uM); 94.3% and 94.1% and 99.5% and 93.5% and 98.4% and 95.6% in the data set with HepG2 (HepG2 CTL D7, 10 uM); 82.7% and 84.2% and 92.3% and 83% and 85.3% and 78.8% with HepG2 (HepG2 CTL D7, 30 uM). In addition, the “% resazurin conversion” value in the data set on HepG2 (HepG2 CTL D7, 50 uM) was 72.7% and 67.2% and 78.7% and 68.5% and 76.7% and 71.9%; in the data set with HepG2 (HepG2 CTL D7, 100 uM), 67.5% and 61.8% and 72.7% and 60.8% and 71.2% and 63.1%; with HepG2 (HepG2 CTL D7, 300 uM), 61.1% and 51.9% and 57.2% and 57% and 59.1% and 57.6%; in the data set on HepG2 (HepG2 CTL D7, 600 uM), 38.6% and 29% and 35.3% and 36.3% and 35.1% and 38.2%; in the data set with HepG2 (HepG2 CTL D7, 1200 uM), 7% and 6.5% and 7.1% and 6.8% and 6.6%.

These data come from article PMC7069944, “Amino acid levels determine metabolism and CYP450 function of hepatocytes and hepatoma cell lines” (Nature Communications, 2020).
